# In patent US8137978B2, “Diagnostic method for biomarkers of adverse coronary events” (Saint Louis University, priority 2009, dated 2012):
# Legend:
# phagocyte = assay: 2-BrHDA phagocyte chemoattractant activity; format: cell-based; conditions: phagocytes
# HepG2 cells = assay: 2-chloropalmitic acid metabolism by HepG2 cells (GC-MS); format: in vitro ADME; conditions: added to cell culture medium, FIG. 9 Panel A
# Excerpt: Two other chlorinated lipids that have prognostic value are α-chloroadipic acid and α-ClFA that is complexed (stored) in triglyceride pools. α-ClFA is metabolized by either storage in triglyceride pools or is broken down in the liver (FIG. 8). In brief α-ClFA is omega oxidized to produce dicarboxylic acids that are shortened and eventually excreted in the urine. […] Concomitant with the loss of 2-chloropalmitic acid is the accumulation of the omega oxidation product, 2-chlorohexadecanedioc acid (Panel B of FIG. 9). Further metabolism of 2-chlorohexadecanedioc acid leads to 2-chlorotetradecanedioc acid (Panel C of FIG. 9) and eventually 2-chloroadipic acid (Panel D of FIG. 9). These metabolites were quantified using gas chromatography-mass spectrometry techniques employing conversion of the carboxylic acids and dicarboxylic acids to their pentafluorobenzyl ester derivatives and negative ion-chemical ionization mass spectrometry.
# [1] = system: eosinophil peroxidase in PMA-stimulated eosinophils; conditions: physiological concentrations of NaCl and NaBr, FIG. 12
# Protocol: Further studies have shown that reactive brominating species (RBS), produced by either MPO- or EPO-released by activated neutrophil or eosinophil, respectively, target plasmalogens. […] Bromide was the preferred substrate for eosinophil peroxidase and chloride was not appreciably used even at a 1000-fold molar excess. […] 2-BrHDA is preferentially produced in PMA-stimulated eosinophils (+PMA) incubated in the presence of physiological concentrations of NaCl and NaBr (FIG. 12). […] These findings may have implications in eosinophilic heart disease as well as pulmonary disease and some cancers, which include eosinophil infiltrations.
smiles,measurement,setting,value
"CCCCCCCCCCCCCCC(Br)C=O (stereo not drawn) [2-BrHDA, 2-bromohexadecanal]",chemoattractant activity,phagocyte,phagocyte chemoattractant
CCCCCCCCCCCCCCC(Cl)C(=O)O (stereo not drawn) [2-chlorohexadecanoic acid],2-chloropalmitic acid remaining in cell culture medium over time,HepG2 cells,decreases in a time and concentration dependent manner
[N-]=[N+]=[N-] [azide],2-BrHDA production in the presence of the peroxidase inhibitor,[1],2-BrHDA was not produced
